Measured values as given in article PMC12257390, “Characterization of Clinically Evaluated Small-Molecule Inhibitors of PD-L1 for Immunotherapy” (ACS Medicinal Chemistry Letters, 2025).
Where two headings read alike, the source gives them in different places.

Tests used:
PD-L1 [1] = biological target: T1, PD-L1 (Homo sapiens, UniProt Q9NZQ7); assay: X-ray co-crystal structure ([…] Å), 1H NMR binding; IC50 from HTRF PD-1/PD-L1 disruption
T1 construct: gene CD274

PD-L1 [2] = biological target: T1, PD-L1; assay: as above; remark: listed apart in the source

T1 sequence (Q9NZQ7 19-290): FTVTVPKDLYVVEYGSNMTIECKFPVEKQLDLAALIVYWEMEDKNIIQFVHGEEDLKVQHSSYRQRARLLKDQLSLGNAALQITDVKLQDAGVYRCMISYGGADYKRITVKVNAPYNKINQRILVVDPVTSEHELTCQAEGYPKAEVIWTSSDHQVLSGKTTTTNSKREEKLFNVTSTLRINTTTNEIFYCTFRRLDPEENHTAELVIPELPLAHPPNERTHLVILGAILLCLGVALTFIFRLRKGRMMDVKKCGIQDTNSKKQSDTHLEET

| Compound | IC50 (PD-L1 [1]) [nM] | IC50 (PD-L1 [2]) [nM] |
| --- | --- | --- |
| Cc1c(Nc2nccc3cc(CN4CC[C@@H](O)C4)cnc23)cccc1-c1cccc(-c2nc3cc(CN4CC[C@@H](C(=O)O)C4)cc(C#N)c3o2)c1C [INCB086550] | 2.59 ± 0.09 |  |
| Cc1c(C=Cc2cc(CNC(C)(CO)C(=O)O)ccc2C(F)(F)F)cccc1-c1ccc2c(c1)OCCO2 (centres unmarked) [MAX-10181] |  | 6.88 ± 0.12 |
